# Experimental data: US9902696B2, “1,4-substituted piperidine derivatives” (Cephalon, Inc., priority 2015, dated 2018)
# Target: T1, recombinant human baculovirus-expressed GST-tagged FASN (Homo sapiens, UniProt P49327)
# T1 construct: GST
# Assay: FASN enzyme activity assay, fluorescence-based detection of CoA with CPM
# Assay type: biochemical
# Conditions: 5 nM FASN, 150 μM NADPH, 10 μM acetyl-CoA, 25 μM malonyl-CoA, 90 minutes incubation; read-out: IC50 data for Compounds of Formulae I-V/V(a): Activity
# In short: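 CoA product reacted with thiol-reactive CPM (diluted to 50 μM in 70% ethanol), read at 390/530 nm after 30 min. Preceding reaction: 90 min, 5 nM recombinant GST-FASN, 150 μM NADPH, 10 μM acetyl-CoA, 25 μM malonyl-CoA, pH 7.5 HEPES, 0.5% DMSO. IC50s fitted by nonlinear sigmoidal regression.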
# T1 sequence (P49327 whole entry): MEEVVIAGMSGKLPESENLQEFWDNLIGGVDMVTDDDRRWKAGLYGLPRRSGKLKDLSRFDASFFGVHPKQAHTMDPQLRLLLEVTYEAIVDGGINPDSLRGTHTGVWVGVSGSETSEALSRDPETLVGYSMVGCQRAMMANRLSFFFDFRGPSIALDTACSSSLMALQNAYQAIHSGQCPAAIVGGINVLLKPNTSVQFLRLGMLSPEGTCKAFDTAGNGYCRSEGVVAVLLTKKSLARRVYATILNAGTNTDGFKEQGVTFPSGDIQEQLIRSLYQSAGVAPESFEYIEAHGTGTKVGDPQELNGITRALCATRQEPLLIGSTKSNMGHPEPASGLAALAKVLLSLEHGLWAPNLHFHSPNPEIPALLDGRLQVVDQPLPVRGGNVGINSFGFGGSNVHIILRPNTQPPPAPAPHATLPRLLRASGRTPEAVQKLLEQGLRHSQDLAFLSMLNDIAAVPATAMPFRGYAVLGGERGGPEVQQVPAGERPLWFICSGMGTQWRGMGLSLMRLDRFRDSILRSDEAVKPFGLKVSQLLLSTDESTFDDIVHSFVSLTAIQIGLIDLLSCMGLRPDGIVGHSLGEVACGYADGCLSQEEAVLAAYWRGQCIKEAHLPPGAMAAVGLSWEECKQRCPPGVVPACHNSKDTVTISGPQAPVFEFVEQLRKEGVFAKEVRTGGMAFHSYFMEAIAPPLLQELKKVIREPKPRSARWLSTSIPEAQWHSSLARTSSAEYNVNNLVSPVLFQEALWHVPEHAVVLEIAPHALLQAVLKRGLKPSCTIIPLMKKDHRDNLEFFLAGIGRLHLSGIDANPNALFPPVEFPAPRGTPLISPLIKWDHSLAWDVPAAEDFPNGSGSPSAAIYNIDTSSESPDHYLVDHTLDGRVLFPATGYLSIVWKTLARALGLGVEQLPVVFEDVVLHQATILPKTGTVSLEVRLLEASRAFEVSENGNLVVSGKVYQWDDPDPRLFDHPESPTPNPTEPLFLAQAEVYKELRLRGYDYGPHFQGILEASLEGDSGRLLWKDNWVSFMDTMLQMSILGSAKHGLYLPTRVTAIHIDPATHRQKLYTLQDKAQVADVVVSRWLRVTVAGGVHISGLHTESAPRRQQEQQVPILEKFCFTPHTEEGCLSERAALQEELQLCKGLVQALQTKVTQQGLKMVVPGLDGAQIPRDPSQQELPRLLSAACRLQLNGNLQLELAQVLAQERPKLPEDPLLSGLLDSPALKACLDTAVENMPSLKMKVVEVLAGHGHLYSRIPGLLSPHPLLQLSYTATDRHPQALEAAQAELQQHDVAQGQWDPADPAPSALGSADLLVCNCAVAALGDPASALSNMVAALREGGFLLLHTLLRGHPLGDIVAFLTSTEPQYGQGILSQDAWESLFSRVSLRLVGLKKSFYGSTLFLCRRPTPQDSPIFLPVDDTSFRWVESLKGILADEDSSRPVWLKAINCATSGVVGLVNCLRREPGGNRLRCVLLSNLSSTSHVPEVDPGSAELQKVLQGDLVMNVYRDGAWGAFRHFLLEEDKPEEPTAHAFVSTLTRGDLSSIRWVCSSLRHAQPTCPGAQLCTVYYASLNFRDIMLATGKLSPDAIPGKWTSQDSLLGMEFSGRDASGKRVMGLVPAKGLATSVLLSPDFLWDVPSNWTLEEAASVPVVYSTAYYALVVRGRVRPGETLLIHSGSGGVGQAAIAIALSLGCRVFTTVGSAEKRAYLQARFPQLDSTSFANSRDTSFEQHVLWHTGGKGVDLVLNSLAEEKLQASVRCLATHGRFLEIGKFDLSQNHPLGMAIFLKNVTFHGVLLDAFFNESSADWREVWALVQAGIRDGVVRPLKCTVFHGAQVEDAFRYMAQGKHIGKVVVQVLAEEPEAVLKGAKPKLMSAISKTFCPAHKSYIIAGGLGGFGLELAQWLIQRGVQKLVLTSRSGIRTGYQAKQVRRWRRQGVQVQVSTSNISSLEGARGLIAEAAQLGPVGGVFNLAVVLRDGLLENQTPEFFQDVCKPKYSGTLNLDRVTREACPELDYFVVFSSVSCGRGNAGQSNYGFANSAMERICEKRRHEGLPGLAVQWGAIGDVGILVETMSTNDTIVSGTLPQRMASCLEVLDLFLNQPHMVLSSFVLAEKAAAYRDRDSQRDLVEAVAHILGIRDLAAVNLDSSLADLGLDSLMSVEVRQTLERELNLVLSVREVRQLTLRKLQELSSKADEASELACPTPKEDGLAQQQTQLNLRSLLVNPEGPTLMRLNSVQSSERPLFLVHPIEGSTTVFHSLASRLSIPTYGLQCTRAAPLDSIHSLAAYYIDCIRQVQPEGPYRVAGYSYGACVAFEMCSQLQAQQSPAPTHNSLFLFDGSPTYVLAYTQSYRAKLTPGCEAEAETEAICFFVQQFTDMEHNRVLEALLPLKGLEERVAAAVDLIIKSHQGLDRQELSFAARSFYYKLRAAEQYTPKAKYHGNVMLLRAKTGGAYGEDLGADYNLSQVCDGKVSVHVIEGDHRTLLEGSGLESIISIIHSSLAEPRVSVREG
row,SMILES,IC50
1,"CCC(=O)N1CCC(Oc2ccc(-c3cc(C)c4nccn4c3)cc2)CC1 [Example 284, 1-{4-[4-(8-Methylimidazo[1,2-a]pyridin-6-yl)-phenoxy]-piperidin-1-yl}-propan-1-one]",1000 to 10000 nM
2,"Cc1c(-c2ccc(OC3CCN(C(=O)[C@H]4CCCO4)CC3)cc2)ccc2nccn12 [Example 285, {4-[4-(5-Methylimidazo[1,2-a]pyridin-6-yl)-phenoxy]-piperidin-1-yl}-(R)-tetrahydrofuran-2-yl-methanone]",1 to 99 nM
3,"CCC(=O)N1CCC(Oc2ccc(-c3ccc4nc(C)c(C)n4c3)cc2)CC1 [Example 290, 1-{4-[4-(2,3-Dimethylimidazo[1,2-a]pyridin-6-yl)-phenoxy]-piperidin-1-yl}-propan-1-one]",1000 to 10000 nM
4,"Cc1nc2ccc(-c3ccc(OC4CCN(C(=O)C5CC5)CC4)cc3)cn2c1C [Example 291, Cyclopropyl-{4-[4-(2,3-dimethylimidazo[1,2-a]pyridin-6-yl)-phenoxy]-piperidin-1-yl}-methanone]",1000 to 10000 nM
5,"Cc1cc2nccn2cc1-c1ccc(OC2CCN(C(=O)[C@H]3CCCO3)CC2)cc1 [Example 292, {4-[4-(7-Methylimidazo[1,2-a]pyridin-6-yl)-phenoxy]-piperidin-1-yl}-(R)-tetrahydrofuran-2-yl-methanone]",100 to 999 nM
6,"O=C([C@H]1CCCO1)N1CCC(Oc2ccc(-c3ccc4nccn4c3Cl)cc2)CC1 [Example 295, {4-[4-(5-Chloroimidazo[1,2-a]pyridin-6-yl)-phenoxy]-piperidin-1-yl}-(R)-tetrahydrofuran-2-yl-methanone]",1 to 99 nM
7,"CCC(=O)N1CCC(Oc2ccc(-c3ccc4nccn4c3Cl)cc2)CC1 [Example 296, 1-{4-[4-(5-Chloroimidazo[1,2-a]pyridin-6-yl)-phenoxy]-piperidin-1-yl}-propan-1-one]",100 to 999 nM
8,"O=C(C1CC1)N1CCC(Oc2ccc(-c3ccc4nccn4c3Cl)cc2)CC1 [Example 297, {4-[4-(5-Chloroimidazo[1,2-a]pyridin-6-yl)-phenoxy]-piperidin-1-yl}-cyclopropylmethanone]",100 to 999 nM
9,"O=C([C@H]1CCCO1)N1CCC(Oc2ccc(-c3ccc4cncn4c3)cc2)CC1 [Example 298, [4-(4-Imidazo[1,5-a]pyridin-6-yl-phenoxy)-piperidin-1-yl]-(R)-tetrahydro-furan-2-yl-methanone]",1 to 99 nM
10,"CCC(=O)N1CCC(Oc2ccc(-c3ccc4cncn4c3)cc2)CC1 [Example 299, 1-[4-(4-Imidazo[1,5-a]pyridin-6-yl-phenoxy)-piperidin-1-yl]-propan-1-one]",1000 to 10000 nM
11,"NC(=O)C1(C(=O)N2CCC(Oc3ccc(-c4ccc5cncn5c4)cc3)CC2)CC1 [Example 301, 1-[4-(4-Imidazo[1,5-a]pyridin-6-yl-phenoxy)-piperidine-1-carbonyl]-cyclopropanecarboxylic acid amide]",1000 to 10000 nM
12,"O=C(N1CCC(Oc2ccc(-c3ccc4cncn4c3)cc2)CC1)C1(O)CC1 [Example 302, (1-Hydroxycyclopropyl)-[4-(4-imidazo[1,5-a]pyridin-6-yl-phenoxy)-piperidin-1-yl]-methanone]",1 to 99 nM
13,"COc1c(-c2ccc(OC3CCN(C(=O)C4(O)CC4)CC3)cc2)ccc2cccnc12 [Example 303, (1-Hydroxycyclopropyl)-{4-[4-(8-methoxy-quinolin-7-yl)-phenoxy]-piperidin-1-yl}-methanone]",1 to 99 nM
14,"O=C(N1CCC(Oc2ccc(-c3ccn4cnnc4c3)cc2)CC1)C1(O)CC1 [Example 306, (1-Hydroxycyclopropyl)-[4-(4-[1,2,4]triazolo[4,3-a]pyridin-7-yl-phenoxy)-piperidin-1-yl]-methanone]",1000 to 10000 nM
15,"O=C([C@H]1CCCO1)N1CCC(Oc2ccc(-c3ccn4cnnc4c3)cc2)CC1 [Example 307, (R)-Tetrahydrofuran-2-yl-[4-(4-[1,2,4]triazolo[4,3-a]pyridin-7-yl-phenoxy)-piperidin-1-yl]-methanone]",100 to 999 nM
16,"O=C(C1CC1)N1CCC(Oc2ccc(-c3ccn4cnnc4c3)cc2)CC1 [Example 308, Cyclopropyl-[4-(4-[1,2,4]triazolo[4,3-a]pyridin-7-yl-phenoxy)-piperidin-1-yl]-methanone]",1000 to 10000 nM
17,"Cc1c(-c2ccc(OC3CCN(C(=O)C4(O)CC4)CC3)cc2)ccc2nccn12 [Example 309, (1-Hydroxycyclopropyl)-{4-[4-(5-methyl-imidazo[1,2-a]pyridin-6-yl)-phenoxy]-piperidin-1-yl}-methanone]",1 to 99 nM
18,"Cc1c(-c2ccc(OC3CCN(C(=O)C(C)(C)O)CC3)cc2)ccc2nccn12 [Example 310, 2-Hydroxy-2-methyl-1-{4-[4-(5-methyl-imidazo[1,2-a]pyridin-6-yl)-phenoxy]-piperidin-1-yl}-propan-1-one]",1000 to 10000 nM

# Second part, the molecule after the results:
row,IC50,SMILES
1,1000 to 10000 nM,"CCC(=O)N1CCC(Oc2ccc(-c3ccc4nccn4c3C)cc2)CC1 [Example 286, 1-{4-[4-(5-Methylimidazo[1,2-a]pyridin-6-yl)-phenoxy]-piperidin-1-yl}-propan-1-one]"
2,100 to 999 nM,"Cc1c(-c2ccc(OC3CCN(C(=O)C4CC4)CC3)cc2)ccc2nccn12 [Example 287, Cyclopropyl-{4-[4-(5-methyl-imidazo[1,2-a]pyridin-6-yl)-phenoxy]-piperidin-1-yl}-methanone]"
3,100 to 999 nM,"Cc1cc(-c2ccc(OC3CCN(C(=O)C4CC4)CC3)cc2)cn2ccnc12 [Example 288, Cyclopropyl-{4-[4-(8-methylimidazo[1,2-a]pyridin-6-yl)-phenoxy]-piperidin-1-yl}-methanone]"
4,1000 to 10000 nM,"Cc1nc2ccc(-c3ccc(OC4CCN(C(=O)[C@H]5CCCO5)CC4)cc3)cn2c1C [Example 289, {4-[4-(2,3-Dimethylimidazo[1,2-a]pyridin-6-yl)-phenoxy]-piperidin-1-yl}-(R)-tetrahydrofuran 2-yl-methanone]"
5,1000 to 10000 nM,"CCC(=O)N1CCC(Oc2ccc(-c3cn4ccnc4cc3C)cc2)CC1 [Example 293, 1-{4-[4-(7-Methylimidazo[1,2-a]pyridin-6-yl)-phenoxy]-piperidin-1-yl}-propan-1-one]"
6,1000 to 10000 nM,"O=C([C@H]1CCCO1)N1CCC(Oc2ccc(-c3ccc4nccn4c3Cl)cc2)CC1 [Example 294, {4-[4-(5-Chloroimidazo[1,2-a]pyridin-6-yl)-phenoxy]-piperidin-1-yl}-(R)-tetrahydrofuran-2-yl-methanone]"
7,1000 to 10000 nM,"O=C(C1CC1)N1CCC(Oc2ccc(-c3ccc4cncn4c3)cc2)CC1 [Example 300, Cyclopropyl-[4-(4-imidazo[1,5-a]pyridin-6-yl-phenoxy)-piperidin-1-yl]-methanone]"
8,1000 to 10000 nM,"Cc1c(-c2ccc(OC3CCN(C(=O)C4(CO)CC4)CC3)cc2)ccc2nccn12 [Example 304, (1-Hydroxymethylcyclopropyl)-{4-[4-(5-methyl-imidazo[1,2-a]pyridin-6-yl)-phenoxy]-piperidin-1-yl}-methanone]"
9,100 to 999 nM,"Cc1c(-c2ccc(OC3CCN(C(=O)C4(N)CC4)CC3)cc2)ccc2nccn12 [Example 305, (1-Aminocyclopropyl)-{4-[4-(5-methyl-imidazo[1,2-a]pyridin-6-yl)-phenoxy]-piperidin-1-yl}-methanone]"
10,1 to 99 nM,"Cc1c(-c2ccc(OC3CCN(C(=O)[C@H]4CCCO4)CC3)cc2)ccc2ncnn12 [Example 311, {4-[4-(5-Methyl-[1,2,4]triazolo[1,5-a]pyridin-6-yl)-phenoxy]-piperidin-1-yl}-(R)-tetrahydrofuran-2-yl-methanone]"
